# Data: the OPERA property sets (Mansouri et al. 2018)
# Conditions: not given
row,SMILES,solubility
1,CC1=C(C(=O)O)N2C(=O)[C@@H](NC(=O)[C@H](N)C3=CCC=CC3)[C@H]2SC1,61 mM
2,Cc1cc(C)c(C)c(C)c1C,0.105 mM
3,Cc1cc(C)c(C(=O)O)c(C)c1,4.4 mM
4,O=C(O)c1ccc(Cl)cc1Cl,2.5 mM
5,NCCNCCNCCNCCN,34500 mM

# Same assay, conditions: 20 °C
row,SMILES,solubility
1,CCOC(=O)CC,188 mM
2,Clc1ccc2c(c1)Oc1c(Cl)c(Cl)c(Cl)c(Cl)c1O2,3.37e-07 mM
3,Clc1ccc(-c2ccccc2Cl)cc1Cl,0.000516 mM
4,C#CC(C)N(C)C(=O)Nc1ccc(Cl)cc1 (stereo not given),0.127 mM
5,COC(=O)c1cccnc1,347 mM
6,CNCC(=O)O,3370 mM
7,COc1ccc(Oc2ccc(NC(=O)N(C)C)cc2)cc1,0.0699 mM
8,C[C@H](O)C(=O)Nc1c(I)c(C(=O)NC(CO)CO)c(I)c(C(=O)NC(CO)CO)c1I,180 mM
9,Oc1cccnc1,350 mM
10,CC(C)C1=CC2=CC[C@@H]3[C@](C)(CCC[C@@]3(C)C(=O)O)[C@H]2CC1,0.16 mM
11,O=C1C[C@@H](c2ccc(O)c(O)c2)Oc2cc(O)cc(O)c21,0.243 mM
12,CCCCOC(=O)CCC,3.47 mM

# Same assay, conditions: 21 °C
row,SMILES,solubility
1,C=C1c2cccc(O)c2C(=O)C2=C(O)[C@]3(O)C(=O)C(C(N)=O)=C(O)[C@@H](N(C)C)[C@@H]3[C@@H](O)[C@H]12,17.1 mM

# Same assay, conditions: 23 °C
row,SMILES,solubility
1,NC(=O)CC(N)C(=O)O (stereo not given),172 mM
2,O=C(O)[C@@H](CO)c1ccccc1,119 mM
3,COP(=O)(OC)OC1=C(Cl)C2C=CCC12 (stereo not given),9.97 mM

# Same assay, conditions: 24 °C
row,SMILES,solubility
1,CC(C)COC(=O)c1ccccc1C(=O)OCC(C)C,0.0223 mM
2,NC(=O)CCl,962 mM
3,CC(CN1c2ccccc2Sc2ccccc21)N(C)C (stereo not given),0.055 mM

# Same assay, conditions: 25 °C
row,SMILES,solubility
1,O=C(O)COc1cccc(Cl)c1Cl,1.55 mM
2,C#CCCCCC,0.977 mM
3,COc1cc(C=O)ccc1O,72.3 mM
4,CCCC(C)O (stereo not given),506 mM
5,C=CCc1ccc(O)c(OC)c1,27.4 mM
6,ClC1=C(Cl)[C@]2(Cl)[C@H]3[C@H]([C@@H]4C=C[C@H]3C4)[C@@]1(Cl)C2(Cl)Cl (racemic),4.66e-05 mM
7,CCC1NC(=O)c2cc(S(N)(=O)=O)c(Cl)cc2N1 (stereo not given),0.518 mM
8,CC(=O)Nc1ccccc1,51.3 mM
9,Cc1c2ccccc2cc2ccccc12,0.00136 mM
10,CCOC(=O)c1c[nH]c(=S)[nH]c1=O,7.97 mM
11,Clc1ccc(Cl)c(-c2cc(Cl)c(Cl)cc2Cl)c1,4.72e-05 mM
12,C=C(C)C,4.69 mM
13,S=C=Nc1cccc(Cl)c1,0.112 mM
14,CCCC(C)=O,499 mM
15,CN(C)[C@@H]1C(O)=C(C(N)=O)C(=O)[C@@]2(O)C(O)=C3C(=O)c4c(O)cccc4[C@@](C)(O)[C@H]3[C@H](O)[C@@H]12,0.68 mM
16,Clc1cc(Cl)cc(-c2cc(Cl)cc(Cl)c2)c1,4.22e-06 mM
17,COP(=S)(NC(C)C)Oc1ccc(Cl)cc1Cl (stereo not given),0.0159 mM
18,c1ccsc1,35.8 mM
19,Cc1ccc2ccc(C)nc2c1,11.4 mM
20,O=C(O)c1cccc(Br)c1,2 mM
21,CCC(O)C(C)(C)C (stereo not given),70.6 mM
22,CCC(C)(C)CC,0.0591 mM
23,CC1CCCC(C)(C)C1 (stereo not given),0.014 mM
24,C=CCc1ccc(OC)cc1,1.2 mM
25,CCC1(CC)C(=O)NC(=O)N(C)C1=O,9.99 mM
26,COc1ccccc1,9.62 mM
27,CC#CCCCC,1.7 mM
28,Clc1cc(-c2cc(Cl)c(Cl)c(Cl)c2Cl)c(Cl)c(Cl)c1Cl,6.33e-07 mM
29,CCCCP(=O)(CCCC)CCCC,255 mM

# Same assay, conditions: 27 °C
row,SMILES,solubility
1,C#C[C@]1(O)CC[C@H]2[C@@H]3CCC4=CC(=O)CC[C@]4(C)[C@H]3CC[C@@]21C,0.0022 mM

# Same assay, conditions: 30 °C
row,SMILES,solubility
1,NCCCCCCCCCCC(=O)O,4.97 mM
2,CCCCn1c(=O)c2c(ncn2C)n(C)c1=O,23.7 mM
3,Cc1cccc(Nc2ccccc2C(=O)O)c1C,0.0829 mM
4,CCCCC1C(=O)N(c2ccccc2)N(c2ccc(O)cc2)C1=O (stereo not given),0.185 mM
5,O=C(O)CCCCCCCCCCBr,0.2 mM
6,C=CCCCCCCCCC(=O)O,0.4 mM
